Consider 18 molecules from patent US10759766B2, “Certain chemical entities, compositions, and methods” (NeuPharma, Inc., priority 2011, dated 2020).

For one test, the target named is BRAF V600E (Homo sapiens (Human), UniProt P15056, V600E). As to the kind of experiment: Z′-LYTE kinase inhibition assay (Invitrogen), BRAF V600E. The class given is biochemical. To be noted: Z′-LYTE method; for inhibition at 1 µM: read-out: % inhibition at 1 μM against BRAF V600E; for IC50: read-out: IC50 against BRAF V600E. In a few lines: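 FRET-based Z′-LYTE peptide phosphorylation format in 50 mM HEPES pH 7.5, 0.01% BRIJ-35, 10 mM MgCl2, 1 mM EGTA with ATP. Kinase reaction 60 min at room temperature, then protease development step 60 min at room temperature before fluorescence read. IC50 from compound concentration versus percent inhibition.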

The target in the next test is KDR (VEGFR2) (Homo sapiens (Human), UniProt P35968). Description: Z′-LYTE kinase inhibition assay (Invitrogen), KDR. The class given is biochemical. To be noted: Z′-LYTE method; for inhibition at 1 µM: read-out: % inhibition at 1 μM against KDR; for IC50: read-out: IC50 against KDR. The essentials: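 Z′-LYTE FRET assay: 10 μL reactions with 0.5–11.7 ng KDR and 2 μM Tyr 01 peptide in 50 mM HEPES pH 7.5, 10 mM MgCl2, 1 mM EGTA, 0.01% BRIJ-35, 1 h at room temperature. Development Reagent B (1:256) added for 60 min, fluorescence read; IC50 from concentration–inhibition curves.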

A further test deals with A549 cells. As to the kind of experiment: Inhibition of cancer cell growth, MTT assay, A549. It is filed as cell-based. In a few lines: (§1)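 Cells grown in RPMI 1640 with 10% FBS were seeded at about 4000 cells/well, left 24 h, then exposed to compound for 72 h (1% DMSO final). MTT absorbance at 570 nm was compared with viable cells at time of addition to give growth inhibition; IC50 from concentration–inhibition plots, triplicates.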
On the technique in general: Tetrazolium assays rely on reduction of a dye to a coloured formazan, in cell work by metabolically active cells.

The next test concerns A375 cells. Description: Inhibition of cancer cell growth, MTT assay, A375. The class given is cell-based. In a few lines: as §1
Another test deals with BRAF (Homo sapiens (Human), UniProt P15056). As to the kind of experiment: Z′-LYTE kinase inhibition assay (Invitrogen), BRAF. The class given is biochemical. Conditions: 1 μM compound, Z′-LYTE method; for inhibition at 1 µM: read-out: % inhibition at 1 μM against BRAF.
Where [1] appears, read: Homo sapiens, A549, 72 h exposure.
Where [2] appears, read: Homo sapiens, A-375, 72 h exposure.

KDR (VEGFR2), sequence (P35968 20-1356): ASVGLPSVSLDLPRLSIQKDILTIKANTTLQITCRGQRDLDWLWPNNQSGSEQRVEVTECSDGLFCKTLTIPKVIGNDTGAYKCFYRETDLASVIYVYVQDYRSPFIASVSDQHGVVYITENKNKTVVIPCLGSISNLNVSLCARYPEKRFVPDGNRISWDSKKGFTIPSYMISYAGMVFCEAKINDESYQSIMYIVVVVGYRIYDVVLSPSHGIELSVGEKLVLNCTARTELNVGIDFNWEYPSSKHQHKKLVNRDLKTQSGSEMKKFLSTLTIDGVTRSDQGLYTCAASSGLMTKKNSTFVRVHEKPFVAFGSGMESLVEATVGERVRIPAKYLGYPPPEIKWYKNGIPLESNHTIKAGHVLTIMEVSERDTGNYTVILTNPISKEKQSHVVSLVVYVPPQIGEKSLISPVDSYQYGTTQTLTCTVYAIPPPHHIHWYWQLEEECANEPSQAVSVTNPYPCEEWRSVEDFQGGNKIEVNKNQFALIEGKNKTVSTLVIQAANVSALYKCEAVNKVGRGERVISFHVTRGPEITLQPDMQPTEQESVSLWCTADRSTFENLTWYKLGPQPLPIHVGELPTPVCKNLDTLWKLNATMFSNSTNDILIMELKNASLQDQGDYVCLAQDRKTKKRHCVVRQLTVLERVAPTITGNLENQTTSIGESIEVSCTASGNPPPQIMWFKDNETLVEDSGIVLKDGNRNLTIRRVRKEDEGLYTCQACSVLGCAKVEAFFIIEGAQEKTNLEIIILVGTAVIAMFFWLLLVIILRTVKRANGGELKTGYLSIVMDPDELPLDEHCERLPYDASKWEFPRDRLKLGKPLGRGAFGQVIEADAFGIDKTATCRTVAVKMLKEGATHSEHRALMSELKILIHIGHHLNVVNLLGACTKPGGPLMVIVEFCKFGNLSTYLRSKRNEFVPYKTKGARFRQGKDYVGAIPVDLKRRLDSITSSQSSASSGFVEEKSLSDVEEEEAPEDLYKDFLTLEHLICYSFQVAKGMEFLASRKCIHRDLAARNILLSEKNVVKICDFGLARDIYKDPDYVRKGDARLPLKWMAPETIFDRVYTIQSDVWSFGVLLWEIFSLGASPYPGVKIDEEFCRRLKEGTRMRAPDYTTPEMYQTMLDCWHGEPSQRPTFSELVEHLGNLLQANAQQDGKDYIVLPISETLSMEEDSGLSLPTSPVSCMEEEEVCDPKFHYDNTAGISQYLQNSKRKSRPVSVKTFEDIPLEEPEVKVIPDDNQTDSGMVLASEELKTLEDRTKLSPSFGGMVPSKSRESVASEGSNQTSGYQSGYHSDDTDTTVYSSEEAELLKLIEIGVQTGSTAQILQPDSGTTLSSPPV
BRAF, sequence (P15056 whole entry): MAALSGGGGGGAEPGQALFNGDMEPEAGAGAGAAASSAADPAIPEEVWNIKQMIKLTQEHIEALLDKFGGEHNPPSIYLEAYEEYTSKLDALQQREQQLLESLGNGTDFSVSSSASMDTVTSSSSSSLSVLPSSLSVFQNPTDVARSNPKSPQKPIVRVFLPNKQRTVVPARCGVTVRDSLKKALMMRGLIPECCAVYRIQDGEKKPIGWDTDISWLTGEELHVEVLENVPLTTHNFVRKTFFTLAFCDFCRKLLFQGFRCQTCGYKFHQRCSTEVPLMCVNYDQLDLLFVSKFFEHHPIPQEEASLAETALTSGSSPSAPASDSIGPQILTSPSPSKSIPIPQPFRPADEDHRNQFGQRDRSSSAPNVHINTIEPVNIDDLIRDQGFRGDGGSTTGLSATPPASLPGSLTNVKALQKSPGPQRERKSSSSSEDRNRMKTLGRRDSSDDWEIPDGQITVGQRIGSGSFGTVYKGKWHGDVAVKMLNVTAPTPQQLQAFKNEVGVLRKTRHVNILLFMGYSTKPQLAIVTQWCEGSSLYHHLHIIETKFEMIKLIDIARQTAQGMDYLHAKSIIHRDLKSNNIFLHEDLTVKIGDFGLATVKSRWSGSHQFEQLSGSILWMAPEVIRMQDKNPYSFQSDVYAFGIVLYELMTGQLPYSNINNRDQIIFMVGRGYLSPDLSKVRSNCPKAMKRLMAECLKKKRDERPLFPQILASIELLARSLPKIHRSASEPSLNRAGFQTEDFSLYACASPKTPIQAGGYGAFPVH
BRAF V600E, sequence (P15056 whole entry V600E): as the sequence (P15056 whole entry) above, with V600E counted along it

Take `O=C(Nc1cccc(C(=O)c2ccc3ncc(-c4cn[nH]c4)nc3c2)c1)c1ccc(Cl)c(C(F)(F)F)c1` [Compound C133, N-(3-(3-(1H-pyrazol-4-yl)quinoxaline-6-carbonyl)phenyl)-4-chloro-3-(trifluoromethyl)benzamide]: the inhibition (as a rule, how much of the control response was suppressed) at 1 µM is 70 to 89% on BRAF V600E (1 μM compound), above 89% at KDR (VEGFR2) (1 μM compound) and below 70% on BRAF. Moreover, the IC50 – broadly, the concentration that gives 50% inhibition – was 2000 to 5000 nM in the test with A549 cells (setting [1]) and below 1000 nM in the test with A375 cells (setting [2]).
Turning to `O=C(Nc1cc(F)c(F)c(C(=O)c2ccc3ncc(N4CCOCC4)nc3c2)c1)c1cccc(C(F)(F)F)c1` [Compound C145, N-(3,4-difluoro-5-(3-morpholinoquinoxaline-6-carbonyl)phenyl)-3-(trifluoromethyl)benzamide], the inhibition at 1 µM at BRAF V600E (1 μM compound) is above 89%; at KDR (VEGFR2) (1 μM compound) it was above 89%; at BRAF, below 70%. For the same molecule, the IC50 is below 100 nM on BRAF V600E, below 100 nM on KDR (VEGFR2), above 5000 nM in the test on A549 cells (setting [1]) and below 1000 nM in the test on A375 cells (setting [2]).
Consider `O=C(Nc1cccc(C(=O)c2ccc3ncc(N4CCCC4)nc3c2)c1)c1cccc(C(F)(F)F)c1` [Compound C122, N-(3-(3-(pyrrolidin-1-yl)quinoxaline-6-carbonyl)phenyl)-3-(trifluoromethyl)benzamide], for which the inhibition at 1 µM on BRAF V600E (1 μM compound) was above 89%; at KDR (VEGFR2) (1 μM compound), above 89%; on BRAF, 70 to 89%. In addition, the IC50 is below 100 nM at BRAF V600E, below 100 nM at KDR (VEGFR2), 2000 to 5000 nM with A549 cells (setting [1]) and 1000 to 5000 nM in the test on A375 cells (setting [2]).
For `O=C(Nc1cc(F)cc(C(=O)c2ccc3ncc(N4CCOCC4)nc3c2)c1)Nc1ccc(Cl)c(C(F)(F)F)c1` [Compound C031, 1-(4-chloro-3-(trifluoromethyl)phenyl)-3-(3-fluoro-5-(3-morpholinoquinoxaline-6-carbonyl)phenyl)urea], the results for the inhibition at 1 µM on BRAF V600E (1 μM compound), at KDR (VEGFR2) (1 μM compound) and at BRAF were 70 to 89%, 70 to 89% and below 70%, respectively. The IC50 in the test with A549 cells (setting [1]) was 2000 to 5000 nM; in the test with A375 cells (setting [2]), below 1000 nM.
In the case of `O=C(Nc1cccc(C(F)(F)F)c1)Nc1cc(F)c(F)c(C(=O)c2ccc3nccnc3c2)c1F` [Compound C006, 1-(2,4,5-trifluoro-3-(quinoxaline-6-carbonyl)phenyl)-3-(3-(trifluoromethyl)phenyl)urea], the inhibition at 1 µM on BRAF V600E (1 μM compound) is 70 to 89%; at KDR (VEGFR2) (1 μM compound), below 70%; on BRAF, below 70%. Also, the IC50 in the test with A549 cells (setting [1]) and with A375 cells (setting [2]) was above 5000 nM each time.
For `O=C(Nc1ccc(F)c(F)c1)Nc1ccc(F)c(C(=O)c2ccc3ncc(NCCO)nc3c2)c1` [Compound C087, 1-(3,4-difluorophenyl)-3-(4-fluoro-3-(3-((2-hydroxyethyl)amino)quinoxaline-6-carbonyl)phenyl)urea], the inhibition at 1 µM on BRAF V600E (1 μM compound), on KDR (VEGFR2) (1 μM compound) and at BRAF was above 89% throughout. Further, the results for the IC50 in the test with A549 cells (setting [1]) and with A375 cells (setting [2]) were 2000 to 5000 nM and below 1000 nM, respectively.
Turning to `O=C(Nc1cccc(C(=O)c2ccc3ncc(N4CCOCC4)nc3c2)c1)Nc1cccc(C(F)(F)F)c1` [Compound C017, 1-(3-(3-morpholinoquinoxaline-6-carbonyl)phenyl)-3-(3-(trifluoromethyl)phenyl)urea], the figures for the inhibition at 1 µM at BRAF V600E (1 μM compound), on KDR (VEGFR2) (1 μM compound) and at BRAF were above 89%, above 89% and 70 to 89%, respectively. The IC50 on BRAF V600E was below 100 nM; on KDR (VEGFR2) it was below 100 nM; in the test on A549 cells (setting [1]) it was below 2000 nM; in the test with A375 cells (setting [2]), below 1000 nM.
With `COc1cnc2ccc(C(=O)c3cc(NC(=O)Nc4ccc(F)c(F)c4)ccc3F)cc2n1` [Compound C082, 1-(3,4-difluorophenyl)-3-(4-fluoro-3-(3-methoxyquinoxaline-6-carbonyl)phenyl)urea], the inhibition at 1 µM at BRAF V600E (1 μM compound) was above 89%; on KDR (VEGFR2) (1 μM compound) it was 70 to 89%; on BRAF, below 70%. The results for the IC50 in the test on A549 cells (setting [1]) and with A375 cells (setting [2]) were 2000 to 5000 nM and 1000 to 5000 nM, respectively.
The corresponding values for `O=C(Nc1cccc(F)c1)Nc1cccc(C(=O)c2ccc3nccnc3c2)c1` [Compound C001, 1-(3-fluorophenyl)-3-(3-(quinoxaline-6-carbonyl)phenyl)urea] are above 89%, below 70%, 70 to 89%, below 2000 nM and 1000 to 5000 nM.
For `O=C(Nc1cccc(C(=O)c2ccc3nccnc3c2)c1)c1ccc(C(F)(F)F)c(Cl)c1` [Compound C107, 3-chloro-N-(3-(quinoxaline-6-carbonyl)phenyl)-4-(trifluoromethyl)benzamide], in that order: above 89%, below 70%, below 70%, above 5000 nM and 1000 to 5000 nM.
For `O=C(Nc1cccc(C(=O)c2ccc3ncc(N4CCOCC4)nc3c2)c1)Nc1ccc(Cl)c(C(F)(F)F)c1` [Compound C018, 1-(4-chloro-3-(trifluoromethyl)phenyl)-3-(3-(3-morpholinoquinoxaline-6-carbonyl)phenyl)urea], the inhibition at 1 µM on BRAF V600E (1 μM compound) is above 89%; on KDR (VEGFR2) (1 μM compound), above 89%; on BRAF, 70 to 89%. The IC50 on BRAF V600E was below 100 nM; at KDR (VEGFR2), below 100 nM; in the test on A549 cells (setting [1]) it was below 2000 nM; with A375 cells (setting [2]) it was below 1000 nM.
On to “1-(fluorophenyl)-3-(2,4,5-trifluoro-3-(quinoxaline-6-carbonyl)phenyl)urea [Compound C005]”, for which, on BRAF V600E (1 μM compound), the “% inhibition at 1 μM against BRAF V600E” value was “++ (between 70% and 89% inhibition)”. Moreover, the “% inhibition at 1 μM against KDR” value on KDR (VEGFR2) (1 μM compound) is recorded as “+ (less than 70% inhibition)”. Also, the half-maximal inhibitory concentration (IC50) with A549 cells (72 h exposure) and in the test with A375 cells (72 h exposure) was above 5000 nM in each case. Moreover, at BRAF, the “% inhibition at 1 μM against BRAF” value is “+ (less than 70% inhibition)”.
With `O=C(Nc1cc(F)c(F)c(C(=O)c2ccc3nccnc3c2)c1)Nc1ccc(Cl)c(C(F)(F)F)c1` [Compound C023, 1-(4-chloro-3-(trifluoromethyl)phenyl)-3-(3,4-difluoro-5-(quinoxaline-6-carbonyl)phenyl)urea], the figures for the inhibition at 1 µM on BRAF V600E (1 μM compound), at KDR (VEGFR2) (1 μM compound) and at BRAF were 70 to 89%, 70 to 89% and below 70%, respectively. For the same molecule, the values for the IC50 with A549 cells (setting [1]) and in the test with A375 cells (setting [2]) were below 2000 nM and below 1000 nM, respectively.
With `O=C(Nc1ccc(Cl)c(Cl)c1)Nc1ccc(F)c(C(=O)c2ccc3nccnc3c2)c1` [Compound C076, 1-(3,4-dichlorophenyl)-3-(4-fluoro-3-(quinoxaline-6-carbonyl)phenyl)urea], the inhibition at 1 µM was above 89% on BRAF V600E (1 μM compound), 70 to 89% on KDR (VEGFR2) (1 μM compound) and 70 to 89% on BRAF. The IC50 was 2000 to 5000 nM in the test with A549 cells (setting [1]) and below 1000 nM with A375 cells (setting [2]).
With `O=C(Nc1cccc(C(=O)c2ccc3ncc(N4CCOCC4)nc3c2)c1)c1cccc(C(F)(F)F)c1` [Compound C119, N-(3-(3-morpholinoquinoxaline-6-carbonyl)phenyl)-3-(trifluoromethyl)benzamide], the values for the inhibition at 1 µM at BRAF V600E (1 μM compound), on KDR (VEGFR2) (1 μM compound) and on BRAF were above 89%, above 89% and 70 to 89%, respectively. Also, the IC50 was below 100 nM at BRAF V600E, below 100 nM on KDR (VEGFR2), 2000 to 5000 nM in the test with A549 cells (setting [1]) and below 1000 nM in the test on A375 cells (setting [2]).
As for `O=C(Nc1ccc(F)c(F)c1)Nc1ccc(F)c(C(=O)c2ccc3ncc(N4CCOCC4)nc3c2)c1` [Compound C046, 1-(3,4-difluorophenyl)-3-(4-fluoro-3-(3-morphlinoquinoxaline-6-carbonyl)phenyl)urea], the inhibition at 1 µM is above 89% on BRAF V600E (1 μM compound), above 89% on KDR (VEGFR2) (1 μM compound) and 70 to 89% at BRAF. The IC50 with A549 cells (setting [1]) was below 2000 nM; in the test on A375 cells (setting [2]), below 1000 nM.
As for `O=C(Nc1cc(F)c(F)c(C(=O)c2ccc3nccnc3c2)c1F)c1cccc(F)c1` [Compound C108, 3-fluoro-N-(2,4,5-trifluoro-3-(quinoxaline-6-carbonyl)phenyl)benzamide], the inhibition at 1 µM at BRAF V600E (1 μM compound) is 70 to 89%; at KDR (VEGFR2) (1 μM compound), below 70%; at BRAF, below 70%. Further, the results for the IC50 with A549 cells (setting [1]) and in the test on A375 cells (setting [2]) were 2000 to 5000 nM and above 5000 nM, respectively.
In the case of `O=C(Nc1ccc(F)c(C(=O)c2ccc3nccnc3c2)c1)Nc1ccc(Cl)c(C(F)(F)F)c1` [Compound C015, 1-(4-chloro-3-(trifluoromethyl)phenyl)-3-(4-fluoro-3-(quinoxaline-6-carbonyl)phenyl)urea], the inhibition at 1 µM is above 89% at BRAF V600E (1 μM compound), above 89% on KDR (VEGFR2) (1 μM compound) and below 70% at BRAF. For the same molecule, the IC50 at BRAF V600E was below 100 nM; on KDR (VEGFR2) it was below 100 nM; in the test on A549 cells (setting [1]), below 2000 nM; with A375 cells (setting [2]), below 1000 nM.
